ChEMBL document CHEMBL1201862, “PubChem BioAssay data set” (2004)
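Cells were grown in 96-well plates and exposed to each compound for 48 hours at five concentrations; endpoints were interpolated linearly between bracketing concentrations, or set to the highest concentration if not reached. GI50: concentration for 50% inhibition of growth.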 Active and inactive are the calls of the source. Rule as the data show it: active = GI50 up to about 1.1 µM and inactive = higher.

Assays:
Experiment in all cases: inhibition of tumour cell growth, NCI panel, 48 h
SNB-75 = system: SNB-75
DU-145 = system: DU-145
UACC-62 = system: UACC-62
SNB-19 = system: SNB-19
IGROV-1 = system: IGROV-1
CAKI-1 = system: CAKI-1
SK-MEL-2 = system: SK-MEL-2
786-0 = system: 786-0
SF-268 = system: SF-268
COLO 205 = system: COLO 205
CCRF-CEM = system: CCRF-CEM
MOLT-4 = system: MOLT-4
NCI-H522 = system: NCI-H522
SF-539 = system: SF-539
MCF7 = system: MCF7
T47D = system: T47D
M14 = system: M14
OVCAR-4 = system: OVCAR-4
SF-295 = system: SF-295
RXF 393 = system: RXF 393
ACHN = system: ACHN
OVCAR-8 = system: OVCAR-8
MDA-N = system: MDA-N
BT-549 = system: BT-549
NCI-H226 = system: NCI-H226
TK-10 = system: TK-10
OVCAR-3 = system: OVCAR-3
A549 = system: A549
PC-3 = system: PC-3
SN12C = system: SN12C
A498 = system: A498
SK-MEL-5 = system: SK-MEL-5
HCT-15 = system: HCT-15
NCI-H460 = system: NCI-H460
Hs-578T = system: Hs-578T
UO-31 = system: UO-31
HT-29 = system: HT-29
MDA-MB-435 = system: MDA-MB-435
U-251 = system: U-251
Malme-3M = system: Malme-3M
HCC 2998 = system: HCC 2998
HOP-62 = system: HOP-62
SR = system: SR
OVCAR-5 = system: OVCAR-5
UACC-257 = system: UACC-257
EKVX = system: EKVX
MDA-MB-231 = system: MDA-MB-231
KM12 = system: KM12
SW-620 = system: SW-620
HOP-92 = system: HOP-92
RPMI-8226 = system: RPMI-8226
NCI-H23 = system: NCI-H23
HL-60 = system: HL-60
SK-OV-3 = system: SK-OV-3
NCI/ADR-RES = system: NCI/ADR-RES
HCT-116 = system: HCT-116
K562 = system: K562
LOX IMVI = system: LOX IMVI
SK-MEL-28 = system: SK-MEL-28

COc1cc2cc(C(=O)N3CC(CCl)c4ccc(N(C)C)cc43)[nH]c2c(OC)c1OC (configuration not stated)
GI50 (SNB-75): 290 nM (active)
GI50 (DU-145): 33.3 nM (active)
GI50 (UACC-62): 0.0592 µM (active)
GI50 (SNB-19): 304 nM (active)
GI50 (IGROV-1): 60.1 nM (active)
GI50 (CAKI-1): 39.5 nM (active)
GI50 (SK-MEL-2): 63 nM (active)
GI50 (786-0): 36.1 nM (active)
GI50 (SF-268): 67.8 nM (active)
GI50 (COLO 205): 85.1 nM (active)
GI50 (CCRF-CEM): 54.7 nM (active)
GI50 (MOLT-4): 48 nM (active)
GI50 (NCI-H522): 0.0127 µM (active)
GI50 (SF-539): 55.9 nM (active)
GI50 (MCF7): 20.7 nM (active)
GI50 (T47D): 0.078 µM (active)
GI50 (M14): 92.3 nM (active)
GI50 (OVCAR-4): 124 nM (active)
GI50 (SF-295): 58.9 nM (active)
GI50 (RXF 393): 26.7 nM (active)
GI50 (ACHN): 19.9 nM (active)
GI50 (OVCAR-8): 98.9 nM (active)
GI50 (MDA-N): 185 nM (active)
GI50 (BT-549): 0.131 µM (active)
GI50 (NCI-H226): 0.152 µM (active)
GI50 (TK-10): 0.13 µM (active)
GI50 (OVCAR-3): 95.9 nM (active)
GI50 (A549): 19.4 nM (active)
GI50 (PC-3): 67.6 nM (active)
GI50 (SN12C): 198 nM (active)
GI50 (A498): 15.3 nM (active)
GI50 (SK-MEL-5): 0.131 µM (active)
GI50 (HCT-15): 145 nM
GI50 (NCI-H460): 26.9 nM (active)
GI50 (Hs-578T): 0.294 µM (active)
GI50 (UO-31): 0.0381 µM (active)
GI50 (HT-29): 81.7 nM (active)
GI50 (MDA-MB-435): 168 nM (active)
GI50 (U-251): 89.7 nM (active)
GI50 (Malme-3M): 0.109 µM (active)
GI50 (HCC 2998): 30.3 nM (active)
GI50 (HOP-62): 128 nM (active)
GI50 (SR): 15.1 nM (active)
GI50 (OVCAR-5): 85.3 nM (active)
GI50 (UACC-257): 0.139 µM (active)
GI50 (EKVX): 0.173 µM (active)
GI50 (MDA-MB-231): 234 nM (active)
GI50 (KM12): 127 nM (active)
GI50 (SW-620): 120 nM (active)
GI50 (HOP-92): 0.0861 µM (active)
GI50 (RPMI-8226): 43 nM (active)
GI50 (NCI-H23): 30.3 nM (active)
GI50 (HL-60): 27.7 nM (active)
GI50 (SK-OV-3): 0.261 µM (active)
GI50 (NCI/ADR-RES): 44.9 nM (active)
GI50 (HCT-116): 54.2 nM (active)
GI50 (K562): 67.5 nM (active)
GI50 (LOX IMVI): 75.5 nM (active)
GI50 (SK-MEL-28): 0.0556 µM (active)

O=c1[nH]nc(-c2ccccc2)n1/N=C/c1ccc([N+](=O)[O-])o1
GI50 (SNB-75): 16000 nM (inactive)
GI50 (DU-145): 3450 nM (inactive)
GI50 (UACC-62): 5.21 µM (inactive)
GI50 (SNB-19): 12600 nM (inactive)
GI50 (IGROV-1): 2570 nM (inactive)
GI50 (CAKI-1): 7130 nM (inactive)
GI50 (SK-MEL-2): 5210 nM (inactive)
GI50 (786-0): 4880 nM (inactive)
GI50 (SF-268): 5570 nM (inactive)
GI50 (COLO 205): 4150 nM (inactive)
GI50 (CCRF-CEM): 1090 nM (active)
GI50 (MOLT-4): 962 nM (active)
GI50 (NCI-H522): 1.32 µM (inactive)
GI50 (SF-539): 4650 nM (inactive)
GI50 (MCF7): 2040 nM (inactive)
GI50 (T47D): 13.7 µM (inactive)
GI50 (M14): 4140 nM (inactive)
GI50 (OVCAR-4): 6650 nM (inactive)
GI50 (SF-295): 10400 nM (inactive)
GI50 (RXF 393): 897 nM (active)
GI50 (ACHN): 2420 nM (inactive)
GI50 (OVCAR-8): 3220 nM (inactive)
GI50 (MDA-N): 3250 nM (inactive)
GI50 (BT-549): 6 µM (inactive)
GI50 (NCI-H226): 9.44 µM (inactive)
GI50 (TK-10): 52.8 µM (inactive)
GI50 (OVCAR-3): 993 nM (active)
GI50 (A549): 7660 nM (inactive)
GI50 (PC-3): 6350 nM (inactive)
GI50 (SN12C): 4370 nM (inactive)
GI50 (A498): 9120 nM (inactive)
GI50 (SK-MEL-5): 14.8 µM (inactive)
GI50 (HCT-15): 2210 nM
GI50 (NCI-H460): 5120 nM (inactive)
GI50 (Hs-578T): 27.2 µM (inactive)
GI50 (UO-31): 4.32 µM (inactive)
GI50 (HT-29): 2490 nM (inactive)
GI50 (MDA-MB-435): 5200 nM (inactive)
GI50 (U-251): 6500 nM (inactive)
GI50 (Malme-3M): 4.26 µM (inactive)
GI50 (HCC 2998): 5260 nM (inactive)
GI50 (HOP-62): 6110 nM (inactive)
GI50 (SR): 1080 nM (active)
GI50 (OVCAR-5): 10400 nM (inactive)
GI50 (UACC-257): 4.92 µM (inactive)
GI50 (EKVX): 8.63 µM (inactive)
GI50 (MDA-MB-231): 6710 nM (inactive)
GI50 (KM12): 6650 nM (inactive)
GI50 (SW-620): 2490 nM (inactive)
GI50 (HOP-92): 6.71 µM (inactive)
GI50 (RPMI-8226): 2040 nM (inactive)
GI50 (NCI-H23): 5900 nM (inactive)
GI50 (HL-60): 8890 nM (inactive)
GI50 (SK-OV-3): 9.29 µM (inactive)
GI50 (NCI/ADR-RES): 5850 nM (inactive)
GI50 (HCT-116): 1370 nM (inactive)
GI50 (K562): 3640 nM (inactive)
GI50 (LOX IMVI): 3340 nM (inactive)
GI50 (SK-MEL-28): 4.92 µM (inactive)

CCN(CC)CCN1CCN=c2c3cc(OC)ccc3n3cnc4ccc1c2c43
GI50 (SNB-75): 714 nM (active)
GI50 (DU-145): 700 nM (active)
GI50 (UACC-62): 1.71 µM (inactive)
GI50 (SNB-19): 481 nM (active)
GI50 (IGROV-1): 357 nM (active)
GI50 (CAKI-1): 621 nM (active)
GI50 (SK-MEL-2): 587 nM (active)
GI50 (786-0): 272 nM (active)
GI50 (SF-268): 466 nM (active)
GI50 (COLO 205): 362 nM (active)
GI50 (CCRF-CEM): 218 nM (active)
GI50 (MOLT-4): 38.5 nM (active)
GI50 (NCI-H522): 1.49 µM (inactive)
GI50 (SF-539): 323 nM (active)
GI50 (MCF7): 171 nM (active)
GI50 (T47D): 5.52 µM (inactive)
GI50 (M14): 719 nM (active)
GI50 (OVCAR-4): 274 nM (active)
GI50 (SF-295): 548 nM (active)
GI50 (RXF 393): 292 nM (active)
GI50 (ACHN): 339 nM (active)
GI50 (OVCAR-8): 318 nM (active)
GI50 (MDA-N): 490 nM (active)
GI50 (BT-549): 1.27 µM (inactive)
GI50 (NCI-H226): 1.54 µM (inactive)
GI50 (TK-10): 1.07 µM (active)
GI50 (OVCAR-3): 946 nM (active)
GI50 (A549): 425 nM (active)
GI50 (PC-3): 391 nM (active)
GI50 (SN12C): 429 nM (active)
GI50 (A498): 746 nM (active)
GI50 (SK-MEL-5): 1.4 µM (inactive)
GI50 (HCT-15): 211 nM
GI50 (NCI-H460): 199 nM (active)
GI50 (Hs-578T): 1.63 µM (inactive)
GI50 (UO-31): 1.41 µM (inactive)
GI50 (HT-29): 85.9 nM (active)
GI50 (MDA-MB-435): 522 nM (active)
GI50 (U-251): 789 nM (active)
GI50 (Malme-3M): 1.22 µM (inactive)
GI50 (HCC 2998): 585 nM (active)
GI50 (HOP-62): 979 nM (active)
GI50 (SR): 174 nM (active)
GI50 (OVCAR-5): 736 nM (active)
GI50 (UACC-257): 1.29 µM (inactive)
GI50 (EKVX): 1.01 µM (active)
GI50 (MDA-MB-231): 483 nM (active)
GI50 (KM12): 367 nM (active)
GI50 (SW-620): 45.6 nM (active)
GI50 (HOP-92): 1.12 µM (inactive)
GI50 (RPMI-8226): 305 nM (active)
GI50 (NCI-H23): 713 nM (active)
GI50 (HL-60): 430 nM (active)
GI50 (SK-OV-3): 1.6 µM (inactive)
GI50 (NCI/ADR-RES): 475 nM (active)
GI50 (HCT-116): 300 nM (active)
GI50 (K562): 200 nM (active)
GI50 (LOX IMVI): 311 nM (active)
GI50 (SK-MEL-28): 1.5 µM (inactive)
